pIC50: −log10 of the molar value.
The compounds below were run against Recombinant human cathepsin S (CatS) (Homo sapiens, UniProt P25774) (assay: Recombinant human cathepsin S (CatS) inhibition assay, fluorogenic substrate Z-Valine-Valine-Arginine-AMC). Conditions: not given.
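Note: Baculovirus-expressed CatS in pH 5.0 sodium acetate buffer with DTT and NaCl, fluorescence read each minute over 20 min, inhibition derived from rate slope.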

Sequence of Recombinant human cathepsin S (CatS) (P25774 115-331): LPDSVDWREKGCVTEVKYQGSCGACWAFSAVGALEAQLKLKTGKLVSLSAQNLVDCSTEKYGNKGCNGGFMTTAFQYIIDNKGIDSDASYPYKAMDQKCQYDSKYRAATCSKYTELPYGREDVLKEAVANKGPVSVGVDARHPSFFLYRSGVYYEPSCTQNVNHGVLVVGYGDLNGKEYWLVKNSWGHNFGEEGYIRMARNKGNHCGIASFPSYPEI

Row | pIC50 | SMILES
1 | 5.98 | COc1cccc(S(=O)(=O)NCCCc2cc(-c3nn(CCCN4CCC(N5CCCC5=O)CC4)c4c3CN(S(C)(=O)=O)CC4)ccc2Cl)c1 [Example 93, N-{3-[2-Chloro-5-(5-methanesulfonyl-1-{3-[4-(2-oxo-pyrrolidin-1-yl)-piperidin-1-yl]-propyl}-4,5,6,7-tetrahydro-1H-pyrazolo[4,3-c]pyridin-3-yl)-phenyl]-propyl}-3-methoxy-benzenesulfonamide]
2 | 6.66 | CC(C)(C)OC(=O)N1C[C@H]2C[C@@H]1CN2CCCn1nc(-c2ccc(Cl)c(C#Cc3ccc(CNCc4ccc(Cl)cc4)cc3)c2)c2c1CCN(S(C)(=O)=O)C2 [Example 492, 1,1-Dimethylethyl (1R,4R)-5-{3-[3-(4-chloro-3-{[4-({[(4-chlorophenyl)methyl]amino}methyl)phenyl]ethynyl}phenyl)-5-(methylsulfonyl)-4,5,6,7-tetrahydro-1H-pyrazolo[4,3-c]pyridin-1-yl]propyl}-2,5-diazabicyclo[2.2.1]heptane-2-carboxylate]
3 | 6.92 | CC(C)(C)OC(=O)N1C[C@@H]2C[C@H]1CN2CCCn1nc(-c2ccc(Cl)c(C#Cc3ccc(CNCc4ccc(Cl)cc4)cc3)c2)c2c1CCN(S(C)(=O)=O)C2 [Example 491, 1,1-Dimethylethyl (1S,4S)-5-{3-[3-(4-chloro-3-{[4-({[(4-chlorophenyl)methyl]amino}methyl)phenyl]ethynyl}phenyl)-5-(methylsulfonyl)-4,5,6,7-tetrahydro-1H-pyrazolo[4,3-c]pyridin-1-yl]propyl}-2,5-diazabicyclo[2.2.1]heptane-2-carboxylate]
4 | 6.70 | CS(=O)(=O)N1CCc2c(c(-c3ccc(Cl)c(CCc4ccc(CO)cc4)c3)nn2CCCN2CCOCC2)C1 [Example 61, [4-(2-{2-Chloro-5-[5-methanesulfonyl-1-(3-morpholin-4-yl-propyl)-4,5,6,7-tetrahydro-1H-pyrazolo[4,3-c]pyridin-3-yl]-phenyl}-ethyl)-phenyl]-methanol]
5 | 7.40 | C[C@H]1COCCN1CCCn1nc(-c2ccc(Cl)c(CCc3ccc(CNCc4ccc(Cl)cc4)cc3)c2)c2c1CCN(C(=O)C(N)=O)C2 [Example 243, 2-[3-(4-Chloro-3-{2-[4-({[(4-chlorophenyl)methyl]amino}methyl)phenyl]ethyl}phenyl)-1-{3-[(3S)-3-methylmorpholin-4-yl]propyl}-1,4,6,7-tetrahydro-5H-pyrazolo[4,3-c]pyridin-5-yl]-2-oxoacetamide]
6 | 5.72 | CS(=O)(=O)N1CCc2c(c(-c3ccc(Cl)c(C#Cc4ccc(Oc5ccccc5)cc4)c3)nn2CCCN2CCOCC2)C1 [Example 17, 3-[4-Chloro-3-(4-phenoxy-phenylethynyl)-phenyl]-5-methanesulfonyl-1-(3-morpholin-4-yl-propyl)-4,5,6,7-tetrahydro-1H-pyrazolo[4,3-c]pyridine]
7 | 7.05 | NC(=O)N1CCc2c(c(-c3ccc(Cl)c(CCc4ccc(Cl)cc4)c3)nn2CCCN2CCOCC2)C1 [Example 145, 3-{4-Chloro-3-[2-(4-chloro-phenyl)-ethyl]-phenyl}-1-(3-morpholin-4-yl-propyl)-1,4,6,7-tetrahydro-pyrazolo[4,3-c]pyridine-5-carboxylic acid amide]
8 | 7.70 | NC(=O)C(=O)N1CCc2c(c(-c3ccc(Cl)c(C#Cc4ccc(Cl)c(C(=O)NCC5CCCNC5)c4)c3)nn2CCCN2CCSCC2)C1 (centres unmarked) [Example 579, 5-[(5-{5-[Amino(oxo)acetyl]-1-(3-thiomorpholin-4-ylpropyl)-4,5,6,7-tetrahydro-1H-pyrazolo[4,3-c]pyridin-3-yl}-2-chlorophenyl)ethynyl]-2-chloro-N-(piperidin-3-ylmethyl)benzamide]
9 | 7.70 | CCNCc1cc(C#Cc2cc(-c3nn(CCCN4CCCCC4)c4c3CN(C(=O)C(N)=O)CC4)ccc2Cl)ccc1Cl [Example 592, 2-{3-[4-Chloro-3-({4-chloro-3-[(ethylamino)methyl]phenyl}ethynyl)phenyl]-1-(3-piperidin-1-ylpropyl)-1,4,6,7-tetrahydro-5H-pyrazolo[4,3-c]pyridin-5-yl}-2-oxoacetamide]
10 | 7.70 | COC(=O)C1CCN(CC(O)Cn2nc(-c3ccc(Cl)c(C#Cc4ccc(Cl)cc4)c3)c3c2CCN(S(C)(=O)=O)C3)CC1 (centres unmarked) [Example 127, 1-(3-{3-[4-Chloro-3-(4-chloro-phenylethynyl)-phenyl]-5-methanesulfonyl-4,5,6,7-tetrahydro-pyrazolo[4,3-c]pyridin-1-yl}-2-hydroxy-propyl)-piperidine-4-carboxylic acid methyl ester]
11 | 6.62 | CS(=O)(=O)N1CCc2c(c(-c3ccc(Cl)c(C#Cc4ccc(CNCc5ccc(Cl)cc5)cc4)c3)nn2CCCN2CCOCC2)C1 [Example 76, (4-Chloro-benzyl)-(4-{2-chloro-5-[5-methanesulfonyl-1-(3-morpholin-4-yl-propyl)-4,5,6,7-tetrahydro-1H-pyrazolo[4,3-c]pyridin-3-yl]-phenylethynyl}-benzyl)-amine]
12 | 7.40 | NC(=O)N1CCc2c(c(-c3ccc(Cl)c(C#Cc4ccc(Cl)c(C(=O)NCC5CNCCO5)c4)c3)nn2CCCN2CCSCC2)C1 (centres unmarked) [Example 584, 3-[4-Chloro-3-({4-chloro-3-[(morpholin-2-ylmethyl)carbamoyl]phenyl}ethynyl)phenyl]-1-(3-thiomorpholin-4-ylpropyl)-1,4,6,7-tetrahydro-5H-pyrazolo[4,3-c]pyridine-5-carboxamide]
13 | 6.51 | CC1CCCN(CCCc2cc(-c3nn(CCCN4CCC(N5CCCC5=O)CC4)c4c3CN(S(C)(=O)=O)CC4)ccc2Cl)C1 (centres unmarked) [Example 103, 1-{1-[3-(3-{4-Chloro-3-[3-(3-methyl-piperidin-1-yl)-propyl]-phenyl}-5-methanesulfonyl-4,5,6,7-tetrahydro-pyrazolo[4,3-c]pyridin-1-yl)-propyl]-piperidin-4-yl}-pyrrolidin-2-one]
14 | 5.60 | CS(=O)(=O)c1ccccc1S(=O)(=O)NCCCc1cc(-c2nn(CCCN3CCC(N4CCCC4=O)CC3)c3c2CN(S(C)(=O)=O)CC3)ccc1Cl [Example 100, N-{3-[2-Chloro-5-(5-methanesulfonyl-1-{3-[4-(2-oxo-pyrrolidin-1-yl)-piperidin-1-yl]-propyl}-4,5,6,7-tetrahydro-1H-pyrazolo[4,3-c]pyridin-3-yl)-phenyl]-propyl}-2-methanesulfonyl-benzenesulfonamide]
15 | 6.41 | CS(=O)(=O)N1CCc2c(c(-c3ccc(Cl)c(C#Cc4ccc5c(c4)CN[C@@H](C(=O)O)C5)c3)nn2CCCN2CCOCC2)C1 [Example 202, (3R)-7-({2-Chloro-5-[5-(methylsulfonyl)-1-(3-morpholin-4-ylpropyl)-4,5,6,7-tetrahydro-1H-pyrazolo[4,3-c]pyridin-3-yl]phenyl}ethynyl)-1,2,3,4-tetrahydroisoquinoline-3-carboxylic acid]

Same assay, conditions: CatS IC50

Row | SMILES | pIC50
16 | C[C@H]1COCCN1CCCn1nc(-c2ccc(Cl)c(C#Cc3ccc(Cl)c(C(=O)NCCCN(C)C(=O)OC(C)(C)C)c3)c2)c2c1CCN(C(=O)C(N)=O)C2 [Example 576, tert-Butyl (3-{[(5-{[5-(5-[amino(oxo)acetyl]-1-{3-[(3S)-3-methylmorpholin-4-yl]propyl}-4,5,6,7-tetrahydro-1H-pyrazolo[4,3-c]pyridin-3-yl)-2-chlorophenyl]ethynyl}-2-chlorophenyl)carbonyl]amino}propyl)methylcarbamate] | 7.30
17 | C=CCNCc1ccc(C#Cc2cc(-c3nn(CCCN4CCOCC4)c4c3CN(S(C)(=O)=O)CC4)ccc2Cl)cc1 [Example 349, N-{[4-({2-Chloro-5-[5-(methylsulfonyl)-1-(3-morpholin-4-ylpropyl)-4,5,6,7-tetrahydro-1H-pyrazolo[4,3-c]pyridin-3-yl]phenyl}ethynyl)phenyl]methyl}prop-2-en-1-amine] | 6.26
18 | CS(=O)(=O)N1CCc2c(c(-c3ccc(Cl)c(C#Cc4ccccc4CNCc4ccccc4)c3)nn2CCCN2CCOCC2)C1 [Example 386, 1-[2-({2-Chloro-5-[5-(methylsulfonyl)-1-(3-morpholin-4-ylpropyl)-4,5,6,7-tetrahydro-1H-pyrazolo[4,3-c]pyridin-3-yl]phenyl}ethynyl)phenyl]-N-(phenylmethyl)methanamine] | 6.11
19 | CS(=O)(=O)N1CCc2c(c(-c3ccc(Cl)c(C#Cc4ccc(CNCc5ccc(Cl)cc5)cc4)c3)nn2CCCN2CCCOCC2)C1 [Example 399, 1-{4-[(2-Chloro-5-{5-(methylsulfonyl)-1-[3-(1,4-oxazepan-4-yl)propyl]-4,5,6,7-tetrahydro-1H-pyrazolo[4,3-c]pyridin-3-yl}phenyl)ethynyl]phenyl}-N-[(4-chlorophenyl)methyl]methanamine] | 6.96
20 | CS(=O)(=O)N1CCc2c(c(-c3ccc(Cl)c(C#Cc4ccccc4Cl)c3)nn2CCCN2CCOCC2)C1 [Example 26, 3-[4-Chloro-3-(2-chloro-phenylethynyl)-phenyl]-5-methanesulfonyl-1-(3-morpholin-4-yl-propyl)-4,5,6,7-tetrahydro-1H-pyrazolo[4,3-c]pyridine] | 6.14
21 | CS(=O)(=O)N1CCc2c(c(-c3ccc(Cl)c(C#Cc4ccc(CNCc5ccc(Cl)cc5)cc4)c3)nn2C[C@H](O)CN2CCSCC2)C1 [Example 262, (R)-1-[3-(4-Chloro-3-{4-[(4-chloro-benzylamino)-methyl]-phenylethynyl}-phenyl)-5-methanesulfonyl-4,5,6,7-tetrahydro-pyrazolo[4,3-c]pyridin-1-yl]-3-thiomorpholin-4-yl-propan-2-ol] | 6.92
22 | C[C@H]1COCCN1CCCn1nc(-c2ccc(Cl)c(C#Cc3ccc(Cl)c(COCCCO)c3)c2)c2c1CCN(C(=O)C(N)=O)C2 [Example 274, (S)-2-{3-{4-Chloro-3-[4-chloro-3-(3-hydroxy-propoxymethyl)-phenylethynyl]-phenyl}-1-[3-(3-methyl-morpholin-4-yl)-propyl]-1,4,6,7-tetrahydro-pyrazolo[4,3-c]pyridin-5-yl}-2-oxo-acetamide] | 7.40

Same assay, conditions: CatS IC50, Table 2; average of results obtained

Row | pIC50 | SMILES
23 | 6.64 | O=C(N1CCc2c(c(-c3ccc(Cl)c(C#Cc4ccc(Cl)cc4)c3)nn2CCCN2CCOCC2)C1)C(F)(F)F [Example 139, 1-[3-[4-Chloro-3-(4-chloro-phenylethynyl)-phenyl]-1-(3-morpholin-4-yl-propyl)-1,4,6,7-tetrahydro-pyrazolo[4,3-c]pyridin-5-yl]-2,2,2-trifluoro-ethanone]

From US20080200454A1, “CARBON-LINKED TETRAHYDRO-PYRAZOLO-PYRIDINE MODULATORS OF CATHEPSIN S” (priority 2007, published 2008)
